Article PMC1784591 (Infectious Diseases in Obstetrics and Gynecology, 2004)
Where a name gives a salt, the structure may show the parent alone.

Key:
[1] = cited from earlier work
[2] = cited from earlier work; remark: listed apart in the source
[3] = test system: term human placenta (single cotyledon); assay: ex vivo human placental perfusion, single cotyledon, open system; settings: range over placentas
[4] = cited from earlier work; remark: listed apart in the source
[5] = test system: term human placenta (single cotyledon); assay: ex vivo human placental perfusion, closed-closed recirculation system; format: in vitro ADME; settings: system closed for 1-5 h; peak and trough concentrations

## CN[C@H](CC(C)C)C(=O)N[C@H]1C(=O)N[C@@H](CC(N)=O)C(=O)N[C@H]2C(=O)N[C@H]3C(=O)N[C@H](C(=O)N[C@H](C(=O)O)c4cc(O)cc(O)c4-c4cc3ccc4O)[C@H](O)c3ccc(c(Cl)c3)Oc3cc2cc(c3O[C@@H]2O[C@H](CO)[C@@H](O)[C@H](O)[C@H]2O[C@H]2C[C@](C)(N)[C@H](O)[C@H](C)O2)Oc2ccc(cc2Cl)[C@H]1O [vancomycin, vancomycin hydrochloride]
[1]; non-pregnant subjects
  excreted by glomerular filtration: 90%
[1]; without meningitis
  CSF levels: undetectable
[2]
  fraction bound to plasma proteins (unavailable for transfer): a third to a half
[2]; non-pregnant subjects
  bound to plasma proteins: 30-55%
[3]; peak concentrations
  Clearance index, mean peak range: 0.000-0.080
[3]; trough concentrations
  Clearance index, mean trough range: 0.00-0.17
[4]
  heparin concentration above which vancomycin precipitates when mixed: more than 1 unit/ml
[5]
  accumulation of vancomycin (fetal): No accumulation
